EC50 data for three molecules are collected here from PMC3633919, “Identification and Characterization of Pheromone Receptors and Interplay between Receptors and Pheromone Binding Proteins in the Diamondback Moth, Plutella xyllostella” (PLoS ONE, 2013).

A word on the EC50: it is the concentration that produces a half-maximal response.

One assay concerns the target T1, PxylOR4/PxylOrco (Plutella xylostella, UniProt M9ZZM3).
T1 construct: full-length untagged ORF 1209 bp (402 residues); pSP64T cRNA co-injected with PxylOrco cRNA in Xenopus laevis oocytes; with Odorant receptor coreceptor
T1 sequence (M9ZZM3 1-402): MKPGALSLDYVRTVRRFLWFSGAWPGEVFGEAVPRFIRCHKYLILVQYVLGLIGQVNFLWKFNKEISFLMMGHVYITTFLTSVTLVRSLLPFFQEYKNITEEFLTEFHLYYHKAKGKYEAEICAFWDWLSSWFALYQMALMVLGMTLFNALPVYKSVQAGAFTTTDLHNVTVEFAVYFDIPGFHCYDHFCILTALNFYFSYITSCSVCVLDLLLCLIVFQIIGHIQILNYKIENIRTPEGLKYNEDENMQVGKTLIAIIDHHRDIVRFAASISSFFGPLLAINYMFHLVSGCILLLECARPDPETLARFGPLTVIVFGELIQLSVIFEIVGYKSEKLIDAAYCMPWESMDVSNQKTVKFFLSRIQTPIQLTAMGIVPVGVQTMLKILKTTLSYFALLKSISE
T1 sequence (D0EZE1 1-471 partner): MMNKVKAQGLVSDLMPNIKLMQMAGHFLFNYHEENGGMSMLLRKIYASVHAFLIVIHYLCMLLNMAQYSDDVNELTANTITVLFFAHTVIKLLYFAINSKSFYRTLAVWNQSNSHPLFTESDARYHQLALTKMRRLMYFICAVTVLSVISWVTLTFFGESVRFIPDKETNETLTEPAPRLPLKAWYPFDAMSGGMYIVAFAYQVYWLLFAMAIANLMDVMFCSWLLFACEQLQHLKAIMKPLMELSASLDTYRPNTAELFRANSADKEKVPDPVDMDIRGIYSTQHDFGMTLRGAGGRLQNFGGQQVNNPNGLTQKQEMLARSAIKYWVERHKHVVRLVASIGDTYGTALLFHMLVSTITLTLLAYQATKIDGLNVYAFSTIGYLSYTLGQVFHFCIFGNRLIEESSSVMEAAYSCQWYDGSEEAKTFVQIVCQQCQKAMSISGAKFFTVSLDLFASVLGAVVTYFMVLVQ
In words: two-electrode voltage clamp, Xenopus oocytes. The format is cell-based. A general note: In two-electrode clamp one electrode senses voltage and the other passes current.

A further assay deals with T2, PxylOR1/PxylOrco (Plutella xylostella, UniProt N0A395).
T2 construct: full-length untagged ORF 1269 bp (422 residues); pSP64T cRNA co-injected with PxylOrco cRNA in Xenopus laevis oocytes; with Odorant receptor coreceptor
T2 sequence (N0A395 1-422): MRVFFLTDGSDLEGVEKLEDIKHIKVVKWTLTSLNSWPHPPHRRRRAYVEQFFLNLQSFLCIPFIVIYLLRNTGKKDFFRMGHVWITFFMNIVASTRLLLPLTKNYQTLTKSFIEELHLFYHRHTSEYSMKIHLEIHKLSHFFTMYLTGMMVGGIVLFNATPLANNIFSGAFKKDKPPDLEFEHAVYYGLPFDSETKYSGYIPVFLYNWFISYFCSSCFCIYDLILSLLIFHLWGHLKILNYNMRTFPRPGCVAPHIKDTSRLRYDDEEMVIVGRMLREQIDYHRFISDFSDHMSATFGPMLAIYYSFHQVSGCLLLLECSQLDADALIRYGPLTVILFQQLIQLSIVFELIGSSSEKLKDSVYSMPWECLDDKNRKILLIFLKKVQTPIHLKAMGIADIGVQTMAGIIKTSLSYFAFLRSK
T2 sequence (D0EZE1 1-471 partner): T1 sequence (D0EZE1 1-471 partner)
Kind of assay: two-electrode voltage clamp, Xenopus oocytes. In kind it is cell-based.

`CCCC/C=C\CCCCCCCCOC(C)=O` [Z9-14:Ac, (Z)-9-tetradecenyl acetate] yielded an EC50 at PxylOR4/PxylOrco of 0.243 µM.
Molecule `CCCC/C=C\CCCCCCCCCC=O` [Z11-16:Ald, (Z)-11-hexadecenal] returned an EC50 at PxylOR1/PxylOrco of 23.9 µM. This counts as double-digit micromolar.
With `C/C=C/C/C=C\CCCCCCCCOC(C)=O` [Z9,E12-14:Ac], at PxylOR4/PxylOrco, a half-maximal effect (EC50) was put at 1.94 µM.
